# Residues, ends and D or L forms follow the SMILES beside them. No end group written: not given here.
# System: human umbilical vein endothelial cells (HUVEC)
# Conditions: 48 h
row,Compound,IC50 [µM]
1,"CC[C@H](C)[C@H](NC(=O)[C@H](CCCCN)NC(=O)[C@@H](N)[C@@H](C)O)C(=O)N[C@@H](CS)C(=O)N[C@H](C(=O)NCC(=O)N[C@@H](CS)C(=O)N1CCC[C@H]1C(=O)N[C@@H](CCCNC(=N)N)C(=O)N[C@@H](CC(=O)O)C(=O)N[C@H](C(=O)N1CCC[C@H]1C(=O)N[C@H](C(=O)N[C@@H](CC(N)=O)C(=O)N[C@@H](CO)C(=O)N1CCC[C@H]1C(=O)O)[C@@H](C)O)[C@@H](C)CC)C(C)C [SEQ ID NO:11, Thr-Lys-Ile-Cys-Val-Gly-Cys-Pro-Arg-Asp-Ile-Pro-Thr-Asn-Ser-Pro] (H-TKICVGCPRDIPTNSP-OH)",30
2,"H-ETKKLGQSLDANAEVY-OH [SEQ ID NO:15, Glu-Thr-Lys-Lys-Leu-Gly-Gln-Ser-Leu-Asp-Ala-Asn-Ala-Glu-Val-Tyr]",42
3,"H-LDANAEVYVVPWEKKI-OH [SEQ ID NO:16, Leu-Asp-Ala-Asn-Ala-Glu-Val-Tyr-Val-Val-Pro-Trp-Glu-Lys-Lys-Ile]",44
4,"H-NNATFYFKIDNVKKAR-OH [SEQ ID NO:10, Asn-Asn-Ala-Thr-Phe-Tyr-Phe-Lys-Ile-Asp-Asn-Val-Lys-Lys-Ala-Arg]",< 0.8
5,"H-TITKLNAENNATFYFK-OH [SEQ ID NO:9, Thr-Ile-Thr-Lys-Leu-Asn-Ala-Glu-Asn-Asn-Ala-Thr-Phe-Tyr-Phe-Lys]",< 0.8
6,"YFIDFVARETTASKES-OH [SEQ ID NO:20, Tyr-Phe-Ile-Asp-Phe-Val-Ala-Arg-Glu-Thr-Thr-Ala-Ser-Lys-Glu-Ser]",28

# Same assay, conditions: HUVEC, bFGF-induced proliferation
row,Compound,Inhibition of endothelial cell proliferation (result in words)
1,"YFIDFVARETTASKES-OH [SEQ ID NO:20, Tyr-Phe-Ile-Asp-Phe-Val-Ala-Arg-Glu-Thr-Thr-Ala-Ser-Lys-Glu-Ser]",inhibits endothelial cell proliferation
